{"source": "patent US5026728A", "about": "“Treatment of arthritis and inflammation using N,N-dimethylglycine” (Foodscience Corporation, priority 1989, dated 1991)", "key": {"[1]": {"system": "Type II collagen", "assay": "ELISA immunoassay of antibody to Type II collagen in sera of collagen-immunized rats", "type": "in vivo, Female Wistar outbred rats", "description": "(§1) Female Wistar outbred rats (age 10-12 weeks) were obtained from Charles River Breeding Laboratories Inc., Wilmington, Mass.) housed in metal cages and fed standard rodent chow with water ad libitum.\n(§2) Immunization was performed using the method outlined by Stuart et al. (Stuart et al., supra). Type II collagen was dissolved in 0.01N acetic acid at a concentration of 2 mg/ml stirring overnight at 4° C. An emulsion was made using incomplete Freund's adjuvant (Difco) and each collagen solution at a ratio of 6:4. Eighteen Wistar rats were given 0.1 ml of a cold emulsion of collagen II by intradermal injection of the left hind footpad and booster injections in the tail at one week and again on day 36.\n(§3) Dimethylglycine mixed in distilled water was administered intraperitoneally to half of the rats in the study at a dosage rate of 100 mg/kg body weight per day, beginning on the day of collagen immunization. Control rats were injected with only distilled water. Rats were sacrificed at the time of the occurrence of arthritis and were bled by cardiac puncture. Rats surviving at day 30 were bled by the tail vein and were bled again at the end of the study (day 51).\nSera were obtained by cardiac puncture on the day arthritis developed or at the end of the study (day 51). An enzyme-linked immunoassay (ELISA) technique adapted from the methods described by Stuart et al. supra was used to measure antibody titres.\nFlat bottom 96 well microtitre plates (Corning) were coated with collagen as follows: Collagen was dissolved in 0.4 ionic strength phosphate buffer, pH 7.6 by stirring overnight at 4° C. The collagen concentration was adjusted to 5 μg/ml determined by the Lowry method (Lowry, O. et al., J. Biol. Chem. 193, 265 [1951]). Each well received 100 μl of collagen solution and the plates were incubated at 4° C. overnight. The coating solution was removed by inverting the plate and sharply snapping the wrist to remove remaining droplets. To reduce nonspecific absorption a blocker of phosphate-buffered saline (PBS) (pH 7.4) containing 0.5% ovalbumin (Grade V), Sigma Chemical Co., St. Louis, Mo.) was added and incubated for 1 hr. The plates were washed with PBS-Tween (containing […]) three times and used immediately. The sera were diluted with PBS-Tween containing 0.5% ovalbumin and aliquots of 100 μl were added to the Type II collagen-coatad microtitre plates. The plates were incubated at 4° C. overnight and washed three times with PBS-Tween. One hundred μl of a 1:3000 dilution of rabbit anti-rat IgG peroxidase conjugate (Sigma) was added and incubated for 4 hr at room temperature. Excess conjugate was removed by washing three times with PBS-Tween and the amount of conjugate bound was determined by adding orthophenylenediamine (OPD) (Sigma Chemical Co.) as a substrate. The substrate was prepared by adding 40 mg of OPD to […] of 0.224M citric acid 0.05M dibasic sodium phosphate pH 5.0 and adding 400 μl of 3% hydrogen peroxide. After incubation with the substrate for 20 min the microtitre plates were read for absorbance at 490 nm using a Mini Reader II (Dynatech)."}, "[2]": {"system": "arthritis (Type II collagen-induced)", "assay": "Type II collagen-induced arthritis in rats, arthritic swelling of hindpaws (Example 1)", "type": "in vivo, Female Wistar outbred rats", "design": "key to rats which showed arthritic swelling (mark): *: Indicates rats which showed arthritic swelling", "details": "100 mg/kg/day i.p.", "description": "as §1, §2, §3\nAnimals in both groups were observed daily for the onset of arthritis. Swelling of the hindpaws was quantitated by measuring the thickness of the ankle from medial to lateral malleolus with a caliper (as done by Trentham et al. supra)."}, "[3]": {"system": "arthritis (Type II collagen-induced)", "assay": "Prevention of arthritis in collagen-injected rats (Example 2)", "type": "in vivo", "description": "Eighteen rats were divided into two groups. Nine animals were injected i.p. with DMG (100 mg/kg body weight) daily, starting on day 14 prior to administration of collagen II, and continuing for 30 days after collagen II injection or until severe arthritic lesions were observed, if earlier. The remaining nine rats were similarly injected i.p. with sterile water. In this experiment, as compared with Example 1, the source of the collagen II was changed from a commercial preparation (Chemicon Corp., Temecula, Calif.) to a fresh preparation prepared by the process according to Trentham et al., 1977, supra."}, "[4]": {"system": "rheumatoid arthritis", "assay": "Treatment of rheumatoid arthritis in humans (Example 3)", "type": "in vivo, human", "description": "Three patients, diagnosed as having rheumatoid arthritis in one or both knees with symptoms of acute pain, inflammation, joint tenderness and morning stiffness, were treated orally with 500 mg of DMG taken four times daily. The test period lasted for six weeks, during which time no other antiinflammatory drugs were taken."}, "[5]": {"system": "gouty arthritis", "assay": "Treatment of gouty arthritis in humans (Example 4)", "type": "in vivo, human", "details": "250 mg t.i.d.", "description": "DMG was administered to two patients suffering from gouty arthritis, at a dosage of 250 mg t.i.d. over a three week period."}, "[6]": {"system": "chronic obstructive pulmonary disease (heaves)", "assay": "Treatment of chronic obstructive pulmonary disease in horses (Example 5)", "type": "in vivo, horses (standardbred)", "description": "Three standardbred horses, ages 3 to 7 years, were diagnosed as having chronic obstructive pulmonary disease, also known as equine asthma or the heaves. Clinical signs included frequent coughing, nasal discharge, increased respiratory rate and wheezing in the chest area. The horses were treated orally with 1.5 g of DMG hydrochloride twice daily for ten days."}, "[7]": {"system": "lymphocytes", "details": "sickle cell disease and diabetes patients; three lectins; cited from earlier work"}, "[8]": {"system": "interferon", "details": "cited from earlier work"}, "[9]": {"system": "lactic acid", "details": "intravenous, severe surgical stress; cited from earlier work"}, "[10]": {"details": "high-dose rats; cited from earlier work"}, "[11]": {"details": "cited from earlier work"}, "[12]": {"details": "human tests; cited from earlier work"}, "[13]": {"details": "greyhounds given DMG; cited from earlier work"}, "[14]": {"system": "interferon", "details": "cited from earlier work", "remark": "listed apart in the source"}, "[15]": {"system": "lymphocytes", "details": "lymphocytes from DMG-fed animals; cited from earlier work"}, "[16]": {"system": "hybridoma antibody producing cells", "details": "in vitro cell cultures; cited from earlier work"}, "[17]": {"system": "B cells", "details": "research on humans; cited from earlier work"}, "[18]": {"system": "T cells and macrophages", "details": "research on humans; cited from earlier work"}, "[19]": {"system": "B cells", "details": "early research; cited from earlier work"}, "[20]": {"system": "T cells and macrophages", "details": "early research; cited from earlier work"}, "[21]": {"details": "animals under extreme stress; cited from earlier work"}, "[22]": {"details": "antibody titre, individual rat, DMG 100 mg/kg/day i.p., absorbance at 490 nm"}, "[23]": {"details": "mean, DMG-treated rats, 100 mg/kg/day i.p."}, "[24]": {"details": "after 5 days, 1.5 g orally twice daily"}}, "note": "Values joined by “and” are separate entries in the source; they are usually repeats but may differ in a detail not shown here. Identical values can stand only once. “Also recorded” adds a separate entry of the source. Counter-ions that a name gives are not always drawn. Like-named read-outs stand apart in the source and are kept apart here.", "data": [{"compound": "CN(C)CC(=O)O", "note": "[DMG, N,N-dimethylglycine]", "values": [{"measurement": "antibody titres compared with control animals", "setting": "[1]; 100 mg/kg/day i.p., rats immunized with Type II collagen", "result": "developed higher antibody titres than control animals"}, {"measurement": "ELISA Reading, serum from day 17", "setting": "[1]; [22]", "result": ".78"}, {"measurement": "ELISA Reading, serum from day 30", "setting": "[1]; [22]", "result": ".47 and .00 and .28 and .32 and .33 and .20 and .17 and .48"}, {"measurement": "ELISA Reading, serum from day 51", "setting": "[1]; [22]", "result": ".60 and .88 and .18 and .35 and .90 and .56 and .64"}, {"measurement": "Mean ELISA Reading, serum from day 17", "setting": "[1]; [23]", "result": ".78"}, {"measurement": "Mean ELISA Reading, serum from day 30", "setting": "[1]; [23]", "result": ".28"}, {"measurement": "Mean ELISA Reading, serum from day 51", "setting": "[1]; [23]", "result": ".54"}, {"measurement": "arthritic swellings of the hindpaws compared with non-DMG-treated group", "setting": "[2]; beginning on the day of collagen immunization", "result": "did not develop to the same extent the arthritic swellings of the hindpaws"}, {"measurement": "rats which showed arthritic swelling (mark)", "setting": "[2]; individual rat", "result": "*"}, {"measurement": "animals developing characteristic inflammation and swelling, of nine", "setting": "[3]; 100 mg/kg i.p. daily from day 14 before collagen II, all control animals developed arthritis", "result": "only two developed the characteristic inflammation and swelling to any extent"}, {"measurement": "development of inflammation and swelling associated with Type II collagen-induced arthritis", "setting": "[3]; 100 mg/kg/day, starting on day 14 prior to injection", "result": "either does not develop to the same extent, or does not develop at all"}, {"measurement": "fatigue and night pain", "setting": "[4]; 500 mg orally four times daily", "result": "All three patients reported less fatigue and less night pain"}, {"measurement": "improvement in inflammation, pain and morning stiffness", "setting": "[4]; after 21 days, 500 mg orally four times daily", "result": "two patients reported significant improvement in reduction of inflammation, pain and morning stiffness; also recorded: the third patient reported a lesser improvement"}, {"measurement": "additional improvement", "setting": "[4]; last three weeks of therapy (six weeks)", "result": "Additional improvement was noted in all three patients"}, {"measurement": "time after which benefits were noted", "setting": "[5]", "result": "7 to 10", "unit": "days"}, {"measurement": "time to maximal benefits", "setting": "[5]", "result": "maximal after two weeks"}, {"measurement": "pain, redness and inflammation", "setting": "[5]; three weeks", "result": "Less pain, redness and inflammation were noted"}, {"measurement": "effect on inflammatory condition, heaves in horses", "setting": "[6]; summary statement in description", "result": "demonstrated to reduce the inflammatory condition and to be an effective therapy for heaves in horses"}, {"measurement": "blast transformation activity of lymphocytes", "setting": "[7]", "result": "approximately doubled"}, {"measurement": "interferon production", "setting": "[8]", "result": "effective in doubling interferon production; also recorded: will increase interferon production"}, {"measurement": "lactic acid production", "setting": "[9]", "result": "decreased lactic acid production"}, {"measurement": "adaptation to hypoxia", "setting": "[10]", "result": "better adaptation to hypoxia"}, {"measurement": "blood lactic acid level following training", "setting": "[11]; DMG in the diet", "result": "lower blood lactic acid level following training"}, {"measurement": "appetite, attitude and recovery from racing and training", "setting": "[11]; trainers' observation, versus controls", "result": "more aggressive, to have better appetites and attitudes and to recover faster from racing and training than the controls"}, {"measurement": "exhaustion time", "setting": "[12]", "result": "increase in exhaustion time"}, {"measurement": "immune response (antibody production and lymphocyte generation)", "setting": "[12]", "result": "enhancement of the body's immune response"}, {"measurement": "racing performance", "setting": "[13]", "result": "improvement in racing performance"}, {"measurement": "recovery after races", "setting": "[13]", "result": "better recovery after races with less fatigue or muscle stiffness"}, {"measurement": "interferon level", "setting": "[14]; primary response, DMG-fed, none detected in immunized controls", "result": "high levels of interferon was present"}, {"measurement": "interferon level", "setting": "[14]; secondary response", "result": "Interferon was not present"}, {"measurement": "lymphocyte activation / proliferation", "setting": "[15]", "result": "can stimulate the cellular immune system by lymphatic proliferation"}, {"measurement": "production of antibodies", "setting": "[16]", "result": "increases the production of antibodies"}, {"measurement": "antibody responses of B cells", "setting": "[17]", "result": "much higher antibody responses"}, {"measurement": "activity of T cells and macrophages", "setting": "[18]", "result": "enhances the activity of T cells and macrophages"}, {"measurement": "antibody responses of B cells (humoral branch)", "setting": "[19]", "result": "much higher antibody responses"}, {"measurement": "activity of T cells and macrophages (cellular immunity branch)", "setting": "[20]", "result": "potentiates the activity of T cells and macrophages"}, {"measurement": "lactic acid levels", "setting": "[21]", "result": "decrease lactic acid levels"}, {"measurement": "oxygen utilization", "setting": "[21]", "result": "increase oxygen utilization"}]}, {"compound": "CN(C)CC(=O)O", "note": "[DMG-HCl]", "values": [{"measurement": "breathing and nasal discharge", "setting": "[6]; [24]", "result": "improved breathing and less nasal discharge"}, {"measurement": "symptomatic relief", "setting": "[6]; [24]", "result": "All three horses showed symptomatic relief after 5 days"}, {"measurement": "clearing of air passages", "setting": "[6]; end of 10 days, 1.5 g orally twice daily", "result": "the air passages of all three horses had cleared"}]}]}
